Measurements: ChEMBL document CHEMBL5291721, “A preclinical secondary pharmacology resource illuminates target-adverse drug reaction associations of marketed drugs” (Nat Commun, 2023)

Columns and labels:
[1] = biological target: 5-hydroxytryptamine receptor 2A (Homo sapiens, UniProt P28223); format: functional, cell-based
[2] = biological target: Kappa-type opioid receptor (Homo sapiens, UniProt P41145)
[3] = biological target: T1, Amine oxidase [flavin-containing] A (Homo sapiens, UniProt P21397); format: functional
T1 sequence (P21397 whole entry): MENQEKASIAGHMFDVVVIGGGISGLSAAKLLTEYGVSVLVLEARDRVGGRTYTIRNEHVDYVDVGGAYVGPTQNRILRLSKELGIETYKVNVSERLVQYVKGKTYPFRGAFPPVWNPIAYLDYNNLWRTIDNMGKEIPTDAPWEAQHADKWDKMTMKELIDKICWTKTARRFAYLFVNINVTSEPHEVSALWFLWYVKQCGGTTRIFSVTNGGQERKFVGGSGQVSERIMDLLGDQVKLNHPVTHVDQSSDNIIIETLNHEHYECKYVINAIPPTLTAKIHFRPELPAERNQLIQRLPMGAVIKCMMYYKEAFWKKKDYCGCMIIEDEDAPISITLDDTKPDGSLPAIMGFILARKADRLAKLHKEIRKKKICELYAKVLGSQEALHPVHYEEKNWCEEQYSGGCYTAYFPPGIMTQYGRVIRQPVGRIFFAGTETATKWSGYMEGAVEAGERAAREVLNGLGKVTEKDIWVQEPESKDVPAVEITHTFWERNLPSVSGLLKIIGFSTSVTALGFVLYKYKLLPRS

[4] = biological target: T2, 5-hydroxytryptamine receptor 2C (Homo sapiens, UniProt P28335)
T2 sequence (P28335 whole entry): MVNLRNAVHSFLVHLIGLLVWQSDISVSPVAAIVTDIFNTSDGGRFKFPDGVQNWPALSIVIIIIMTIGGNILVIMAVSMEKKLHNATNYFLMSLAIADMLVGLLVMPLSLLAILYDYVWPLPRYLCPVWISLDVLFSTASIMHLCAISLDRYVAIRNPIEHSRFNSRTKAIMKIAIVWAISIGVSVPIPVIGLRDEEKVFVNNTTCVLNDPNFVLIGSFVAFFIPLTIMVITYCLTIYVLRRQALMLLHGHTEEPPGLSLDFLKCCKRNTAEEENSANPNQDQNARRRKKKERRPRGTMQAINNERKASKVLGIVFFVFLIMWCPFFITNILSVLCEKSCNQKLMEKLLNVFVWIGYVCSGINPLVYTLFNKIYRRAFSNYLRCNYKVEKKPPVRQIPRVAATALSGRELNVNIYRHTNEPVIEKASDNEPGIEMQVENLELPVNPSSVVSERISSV

[5] = biological target: T3, Alpha-2A adrenergic receptor (Homo sapiens, UniProt P08913); format: functional, cell-based
T3 sequence (P08913 whole entry): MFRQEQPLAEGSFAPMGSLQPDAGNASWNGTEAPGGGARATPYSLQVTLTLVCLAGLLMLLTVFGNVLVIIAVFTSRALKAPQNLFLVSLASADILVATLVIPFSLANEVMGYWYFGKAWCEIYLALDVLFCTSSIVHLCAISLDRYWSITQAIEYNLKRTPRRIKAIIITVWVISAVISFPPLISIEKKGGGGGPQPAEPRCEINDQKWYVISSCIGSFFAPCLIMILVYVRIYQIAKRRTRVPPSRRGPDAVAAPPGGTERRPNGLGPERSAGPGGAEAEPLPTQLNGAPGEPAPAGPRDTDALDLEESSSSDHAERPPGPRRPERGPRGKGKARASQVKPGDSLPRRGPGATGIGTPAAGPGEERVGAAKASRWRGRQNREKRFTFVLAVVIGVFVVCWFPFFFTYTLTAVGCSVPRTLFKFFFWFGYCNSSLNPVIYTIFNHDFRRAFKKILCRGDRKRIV

[6] = biological target: Delta-type opioid receptor (Homo sapiens, UniProt P41143)
[7] = biological target: Gamma-aminobutyric acid receptor subunit alpha-1 (Rattus norvegicus, UniProt P62813)
[8] = biological target: T4, 5-hydroxytryptamine receptor 3A (Homo sapiens, UniProt P46098); format: functional
T4 sequence (P46098 whole entry): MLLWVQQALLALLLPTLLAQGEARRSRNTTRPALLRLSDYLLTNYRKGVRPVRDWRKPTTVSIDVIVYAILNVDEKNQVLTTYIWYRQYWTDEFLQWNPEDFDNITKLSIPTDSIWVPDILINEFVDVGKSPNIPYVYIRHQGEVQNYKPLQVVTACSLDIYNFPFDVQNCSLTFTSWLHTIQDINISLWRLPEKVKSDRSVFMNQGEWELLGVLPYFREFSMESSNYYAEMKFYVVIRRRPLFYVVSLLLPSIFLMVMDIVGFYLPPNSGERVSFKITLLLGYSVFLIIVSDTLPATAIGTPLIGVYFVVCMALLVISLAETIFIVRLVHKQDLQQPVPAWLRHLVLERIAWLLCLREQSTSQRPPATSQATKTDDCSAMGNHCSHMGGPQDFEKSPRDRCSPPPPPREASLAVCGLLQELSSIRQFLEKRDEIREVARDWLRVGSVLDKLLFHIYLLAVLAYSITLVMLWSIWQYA

Cannabinoid receptor 1 = Cannabinoid receptor 1 (Homo sapiens, UniProt P21554); format: functional, cell-based
[9] = biological target: T5, Neuropeptide Y receptor type 1 (Homo sapiens, UniProt P25929)
T5 sequence (P25929 whole entry): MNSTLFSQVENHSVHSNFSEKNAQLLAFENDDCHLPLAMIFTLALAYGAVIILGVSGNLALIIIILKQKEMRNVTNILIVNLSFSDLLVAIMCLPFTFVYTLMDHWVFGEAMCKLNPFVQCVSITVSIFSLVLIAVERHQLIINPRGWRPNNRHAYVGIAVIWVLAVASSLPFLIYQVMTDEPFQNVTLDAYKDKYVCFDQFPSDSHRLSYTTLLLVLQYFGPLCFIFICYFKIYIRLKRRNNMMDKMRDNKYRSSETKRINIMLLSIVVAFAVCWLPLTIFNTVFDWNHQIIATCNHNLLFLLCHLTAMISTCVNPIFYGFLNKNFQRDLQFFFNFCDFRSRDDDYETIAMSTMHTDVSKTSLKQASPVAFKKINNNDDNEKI

Vasopressin V1a receptor = Vasopressin V1a receptor (Homo sapiens, UniProt P37288)
Note: assay procedure not described here.

Kappa-type opioid receptor, sequence (P41145 whole entry): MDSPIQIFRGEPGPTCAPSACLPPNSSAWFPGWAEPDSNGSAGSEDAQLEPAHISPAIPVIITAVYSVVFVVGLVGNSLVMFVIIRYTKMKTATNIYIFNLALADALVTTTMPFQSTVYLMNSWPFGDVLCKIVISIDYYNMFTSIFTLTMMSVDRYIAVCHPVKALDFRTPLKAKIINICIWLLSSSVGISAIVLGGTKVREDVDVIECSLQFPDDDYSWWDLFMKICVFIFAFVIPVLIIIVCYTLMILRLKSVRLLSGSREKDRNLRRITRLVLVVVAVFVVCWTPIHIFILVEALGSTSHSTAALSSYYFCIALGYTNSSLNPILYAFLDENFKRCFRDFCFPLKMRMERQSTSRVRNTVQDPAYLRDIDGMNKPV
5-hydroxytryptamine receptor 2A, sequence (P28223 whole entry): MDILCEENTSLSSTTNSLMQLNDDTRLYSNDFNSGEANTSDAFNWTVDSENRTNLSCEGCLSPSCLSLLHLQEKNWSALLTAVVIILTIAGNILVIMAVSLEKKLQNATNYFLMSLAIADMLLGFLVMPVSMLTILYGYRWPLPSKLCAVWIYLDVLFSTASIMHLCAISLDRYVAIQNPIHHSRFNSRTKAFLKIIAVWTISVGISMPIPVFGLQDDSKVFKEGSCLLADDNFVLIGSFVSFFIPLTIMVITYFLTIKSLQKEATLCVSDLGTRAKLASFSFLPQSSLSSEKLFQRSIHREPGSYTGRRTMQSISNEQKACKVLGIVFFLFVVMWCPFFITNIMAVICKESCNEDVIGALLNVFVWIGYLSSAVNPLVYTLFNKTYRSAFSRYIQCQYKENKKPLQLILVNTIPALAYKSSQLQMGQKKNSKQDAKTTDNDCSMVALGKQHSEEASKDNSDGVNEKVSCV
Cannabinoid receptor 1, sequence (P21554 whole entry): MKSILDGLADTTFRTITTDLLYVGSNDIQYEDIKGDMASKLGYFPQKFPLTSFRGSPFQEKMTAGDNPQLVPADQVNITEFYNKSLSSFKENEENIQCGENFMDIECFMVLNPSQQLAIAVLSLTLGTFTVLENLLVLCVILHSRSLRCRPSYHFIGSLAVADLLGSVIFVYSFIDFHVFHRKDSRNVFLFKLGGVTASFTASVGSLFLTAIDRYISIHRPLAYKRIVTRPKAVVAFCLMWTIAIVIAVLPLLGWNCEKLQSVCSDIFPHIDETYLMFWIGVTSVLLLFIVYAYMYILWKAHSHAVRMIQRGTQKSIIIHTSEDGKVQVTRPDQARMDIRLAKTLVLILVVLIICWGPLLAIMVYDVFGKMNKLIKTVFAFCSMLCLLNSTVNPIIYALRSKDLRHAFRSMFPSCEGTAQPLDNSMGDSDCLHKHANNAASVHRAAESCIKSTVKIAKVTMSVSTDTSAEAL
Vasopressin V1a receptor, sequence (P37288 whole entry): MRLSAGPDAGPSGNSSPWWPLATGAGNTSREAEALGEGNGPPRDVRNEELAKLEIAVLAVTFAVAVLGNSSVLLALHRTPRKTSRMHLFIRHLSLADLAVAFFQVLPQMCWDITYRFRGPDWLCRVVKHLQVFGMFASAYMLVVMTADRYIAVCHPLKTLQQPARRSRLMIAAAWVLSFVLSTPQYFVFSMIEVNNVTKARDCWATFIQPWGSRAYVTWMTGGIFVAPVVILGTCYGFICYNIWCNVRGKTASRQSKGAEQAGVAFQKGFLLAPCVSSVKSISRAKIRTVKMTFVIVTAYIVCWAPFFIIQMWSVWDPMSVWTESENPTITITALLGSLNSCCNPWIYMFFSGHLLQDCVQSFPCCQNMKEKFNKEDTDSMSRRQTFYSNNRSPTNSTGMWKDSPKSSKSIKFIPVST
Gamma-aminobutyric acid receptor subunit alpha-1, sequence (P62813 whole entry): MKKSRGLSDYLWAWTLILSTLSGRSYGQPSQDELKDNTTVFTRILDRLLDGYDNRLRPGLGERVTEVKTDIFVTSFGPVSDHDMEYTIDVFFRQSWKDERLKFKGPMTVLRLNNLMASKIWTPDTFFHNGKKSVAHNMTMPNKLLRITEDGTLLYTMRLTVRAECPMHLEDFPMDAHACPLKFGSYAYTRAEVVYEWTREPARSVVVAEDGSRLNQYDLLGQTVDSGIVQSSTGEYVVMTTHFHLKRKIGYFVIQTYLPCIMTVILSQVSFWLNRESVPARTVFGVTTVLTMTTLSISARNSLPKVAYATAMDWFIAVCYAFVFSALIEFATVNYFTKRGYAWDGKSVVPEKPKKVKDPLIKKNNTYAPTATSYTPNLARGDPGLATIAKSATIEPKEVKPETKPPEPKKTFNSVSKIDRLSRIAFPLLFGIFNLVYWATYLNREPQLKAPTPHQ
Delta-type opioid receptor, sequence (P41143 whole entry): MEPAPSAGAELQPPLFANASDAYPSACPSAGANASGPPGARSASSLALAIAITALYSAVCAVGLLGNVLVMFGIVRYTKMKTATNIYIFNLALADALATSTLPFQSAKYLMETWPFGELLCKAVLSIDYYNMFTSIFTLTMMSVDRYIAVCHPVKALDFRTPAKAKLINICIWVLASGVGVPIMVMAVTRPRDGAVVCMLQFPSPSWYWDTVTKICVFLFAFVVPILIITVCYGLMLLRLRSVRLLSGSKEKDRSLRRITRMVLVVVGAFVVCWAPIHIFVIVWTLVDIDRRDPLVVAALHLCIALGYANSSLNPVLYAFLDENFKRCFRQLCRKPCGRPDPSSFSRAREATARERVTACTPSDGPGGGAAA

Molecule | AC50 [1] [µM] | AC50 [2] [µM] | AC50 [3] [µM] | AC50 [4] [µM] | AC50 [5] [µM] | AC50 [6] [µM] | AC50 [7] [µM] | AC50 [8] [µM] | AC50 (Cannabinoid receptor 1) [µM] | AC50 [9] [µM] | AC50 (Vasopressin V1a receptor) [µM]
CCCCCCC(C)(C)c1cc(O)c2c(c1)OC(C)(C)C1CCC(=O)CC21 (stereo not drawn) [NABILONE] | > 30 | > 30 | > 30 | > 30 | > 30 | > 30 | > 30 | > 30 | 0.168 | > 30 | > 30
CCCCCCCCOc1ccccc1C(=O)Nc1ccc(C(=O)OCC[N+](C)(CC)CC)cc1 [OTILONIUM BROMIDE] | > 30 | 3.4 | > 30 | 1.1 | > 10 | 29 | > 30 | > 30 | > 30 | 10 | 13
CN1C(=O)CC(c2ccccc2)C1=O (stereo not drawn) [PHENSUXIMIDE] | > 10 | > 10 | > 10 | > 30 | > 10 | > 30 | > 10 | > 30 | > 30 | > 10 | > 10
C1COC(NC(C2CC2)C2CC2)=N1 [RILMENIDINE] | > 30 | 1.72 | > 10 | > 30 | 1.31 | > 30 | > 10 | > 30 | > 30 | > 30 | > 30
Cc1c(Cl)cccc1Nc1ccccc1C(=O)O [TOLFENAMIC ACID] | > 30 | > 30 | > 30 | > 30 | > 30 | > 30 | > 30 | > 30 | > 30 | > 30 | > 30
COc1ccc(C(=O)N2CCN(c3ccc4c(c3)CCC(=O)N4)CC2)cc1OC [VESNARINONE] | > 30 | > 30 | > 30 | > 30 | > 30 | > 30 | > 30 | > 30 | > 30 | > 30 | > 30
CN1CCN(C(=O)OC2c3nccnc3C(=O)N2c2ccc(Cl)cn2)CC1 (stereo not drawn) [ZOPICLONE] | > 30 | > 10 | > 30 | > 10 | > 10 | > 10 | > 10 | > 10 | > 30 | > 30 | > 30
TOCOFERSOLAN | > 30 | > 30 | > 30 | > 30 | > 30 | > 30 | > 30 | > 30 | > 30 | > 30 | > 30
